In patent publication US9809602B2, “Compounds for treating viral infections” (INSTITUT PASTEUR KOREA, priority 2014, dated 2017):

What was measured:
[1] = test system: HCV genotype 2a (J6) chimeric HCVcc; test: Pan-genotypic activity test using chimeric HCVcc, genotype 2a; assay type: cell-based; conditions: Hepatitis C virus, read-out: EC50 gt2a
Procedure: (§1) Naïve Huh-7.5 target cells were plated at 2400 cells/well in 25 μL of culture media in 384-well plates (Greiner bio-one, μ clear black). After overnight incubation, compounds serially diluted in 10 μL of cell culture media were added. After 2 h compound treatment, cells were inoculated with 40 μL of genotype 1/2 chimeric cell culture derived HCV (HCVcc) which express structural proteins of an HCV genotype 1a isolate (TN accession number EF621489) and non-structural proteins of HCV genotype 2a (JFH-1) with nano-luciferase reporter. At 72 h post infection, nano-luciferase activity (Nano-Glo™, Promega) and cellular ATP (Cell titer-Glo™, Promega) were measured as a marker for HCV replication and cytotoxicity, respectively. EC50 and CC50 were calculated by non-linear regression analyzing using GraphPad Prism (GraphPad Software).
(§2) In order to evaluate cross-genotypic antiviral activity against various HCV genotypes, Formulas I and II were tested using chimeric HCVcc as described above. HCV chimeras expressing the structural proteins of HCV genotype 1b (J4), 2a (J6), 2b (J8), 3a (S52), 4a (ED43), 5a (SA13), 6a (HK6a) or 7a (QC69), followed by HCV genotype 2a (JFH-1) derived non-structural proteins responsible for viral RNA replication and Renilla luciferase reporter gene were used to monitor viral replication.

[2] = test system: HCV genotype 1a chimeric HCVcc; test: Pan-genotypic activity test using chimeric HCVcc, genotype 1a; assay type: cell-based; conditions: Hepatitis C virus, read-out: EC50 gt1a
[3] = test system: HCV genotype 2b (J8) chimeric HCVcc; test: Pan-genotypic activity test using chimeric HCVcc, genotype 2b; assay type: cell-based; conditions: Hepatitis C virus, read-out: EC50 gt2b
Procedure: as §1, §2

[4] = test system: HCV genotype 6a (HK6a) chimeric HCVcc; test: Pan-genotypic activity test using chimeric HCVcc, genotype 6a; assay type: cell-based; conditions: Hepatitis C virus, read-out: EC50 gt6a
Procedure: as §1, §2

[5] = test system: HCV genotype 7a (QC69) chimeric HCVcc; test: Pan-genotypic activity test using chimeric HCVcc, genotype 7a; assay type: cell-based; conditions: Hepatitis C virus, read-out: EC50 gt7a
Procedure: as §1, §2

[6] = test system: HCV genotype 3a (S52) chimeric HCVcc; test: Pan-genotypic activity test using chimeric HCVcc, genotype 3a; assay type: cell-based; conditions: Hepatitis C virus, read-out: EC50 gt3a
Procedure: as §1, §2

[7] = test system: HCV genotype 5a (SA13) chimeric HCVcc; test: Pan-genotypic activity test using chimeric HCVcc, genotype 5a; assay type: cell-based; conditions: Hepatitis C virus, read-out: EC50 gt5a
Procedure: as §1, §2

[8] = test system: HCV genotype 1b (J4) chimeric HCVcc; test: Pan-genotypic activity test using chimeric HCVcc, genotype 1b; assay type: cell-based; conditions: Hepatitis C virus, read-out: EC50 gt1b
Procedure: as §1, §2

[9] = test system: HCV genotype 4a (ED43) chimeric HCVcc; test: Pan-genotypic activity test using chimeric HCVcc, genotype 4a; assay type: cell-based; conditions: Hepatitis C virus, read-out: EC50 gt4a
Procedure: as §1, §2

[10] = test system: genotype 1/2 chimeric cell culture derived HCV (HCVcc); test: Genotype 1/2 chimeric HCVcc assay (nano-luciferase, HCV replication); assay type: cell-based; conditions: Hepatitis C virus
Summary of the method: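 Huh-7.5 cells (2400/well) pretreated 2 h with serially diluted compound, then infected with nano-luciferase genotype 1a/2a (JFH-1) chimeric HCVcc. At 72 h post infection, nano-luciferase reported replication and cellular ATP reported cytotoxicity; EC50 and CC50 by non-linear regression.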

## O=C(NCCCN1CCC(N2CCCCC2)CC1)c1ccc(-c2ccc(C(F)(F)F)cc2)cc1 [No. 1019]
[1]
  EC50: 1 to 10 µM
[2]
  EC50: > 10 µM
[3]
  EC50: 1 to 10 µM
[4]
  EC50: > 10 µM
[5]
  EC50: > 10 µM
[6]
  EC50: > 10 µM
[7]
  EC50: > 10 µM
[8]
  EC50: > 10 µM
[9]
  EC50: > 10 µM

## O=C(NCCCN1CCC(N2CCCCC2)CC1)c1ccc(Oc2ccccc2)cc1 [No. 1013]
[1]
  EC50: 1 to 10 µM
[2]
  EC50: > 10 µM
[3]
  EC50: 0.1 to 1 µM
[4]
  EC50: > 10 µM
[5]
  EC50: > 10 µM
[6]
  EC50: > 10 µM
[7]
  EC50: > 10 µM
[8]
  EC50: > 10 µM
[9]
  EC50: > 10 µM

## CC(C)(C)OC(=O)c1c(NC(=O)NCc2c(C(F)(F)F)sc3c2CCNC3)sc2c1CCCC2 [No. 121]
[1]
  EC50: < 0.1 µM
[2]
  EC50: < 0.1 µM
[3]
  EC50: < 0.1 µM
[4]
  EC50: > 10 µM
[5]
  EC50: < 0.1 µM
[6]
  EC50: < 0.1 µM
[7]
  EC50: 1 to 10 µM
[8]
  EC50: < 0.1 µM
[9]
  EC50: < 0.1 µM

## CCOC(=O)c1c(NC(=O)NCc2c(C(F)(F)F)sc3c2CCN(CCN(C)C)C3)sc2c1CCCC2 [No. 316]
[1]
  EC50: < 0.1 µM
[2]
  EC50: < 0.1 µM
[3]
  EC50: < 0.1 µM
[4]
  EC50: > 10 µM
[5]
  EC50: < 0.1 µM
[6]
  EC50: < 0.1 µM
[7]
  EC50: 1 to 10 µM
[8]
  EC50: < 0.1 µM
[9]
  EC50: < 0.1 µM

## CCN1CCc2c(sc(-n3cccc3)c2CNC(=O)Nc2sccc2C(=O)OC)C1 [Compound 11]
other
  melting point: 201.8 °C
[10]; Huh7.5, 72 h
  EC50: 1 to 10 µM

## CCOC(=O)c1c(NC(=O)NCc2c(-n3cccc3)sc3c2CCNC3)sc2c1CCCC2 [No. 19]
[1]
  EC50: 0.1 to 1 µM
[2]
  EC50: 0.1 to 1 µM
[3]
  EC50: 0.1 to 1 µM
[4]
  EC50: > 10 µM
[5]
  EC50: 0.1 to 1 µM
[6]
  EC50: 0.1 to 1 µM
[7]
  EC50: 1 to 10 µM
[8]
  EC50: 0.1 to 1 µM
[9]
  EC50: 0.1 to 1 µM

## CCOC(=O)c1c(NC(=O)NCc2c(-n3cccc3)sc3c2CCN(CC(C)C)C3)sc2c1CCCC2 [No. 27]
[1]
  EC50: 0.1 to 1 µM
[2]
  EC50: 0.1 to 1 µM
[3]
  EC50: 0.1 to 1 µM
[4]
  EC50: > 10 µM
[5]
  EC50: 0.1 to 1 µM
[6]
  EC50: 0.1 to 1 µM
[7]
  EC50: 1 to 10 µM
[8]
  EC50: 0.1 to 1 µM
[9]
  EC50: 0.1 to 1 µM

## CC(C)OC(=O)c1c(NC(=O)NCc2c(C(F)(F)F)sc3c2CCNC3)sc2c1CCCC2 [No. 167]
[1]
  EC50: < 0.1 µM
[2]
  EC50: < 0.1 µM
[3]
  EC50: < 0.1 µM
[4]
  EC50: > 10 µM
[5]
  EC50: < 0.1 µM
[6]
  EC50: < 0.1 µM
[7]
  EC50: 1 to 10 µM
[8]
  EC50: < 0.1 µM
[9]
  EC50: < 0.1 µM

## CCN1CCc2c(sc(-n3cccc3)c2CNC(=O)Nc2sc3c(c2C(=O)OC(C)(C)C)CCCC3)C1 [No. 14]
[1]
  EC50: 0.1 to 1 µM
[2]
  EC50: 0.1 to 1 µM
[3]
  EC50: < 0.1 µM
[4]
  EC50: > 10 µM
[5]
  EC50: < 0.1 µM
[6]
  EC50: 0.1 to 1 µM
[7]
  EC50: 1 to 10 µM
[8]
  EC50: 0.1 to 1 µM
[9]
  EC50: 0.1 to 1 µM

## CCOC(=O)c1c(NC(=O)NCc2c(-n3cccc3)sc3c2CCN(CC)C3)sc(C)c1C [Compound 12]
other
  melting point: 196.9 °C
[10]; Huh7.5, 72 h
  EC50: 0.1 to 1 µM

## CCOC(=O)c1c(NC(=O)NCc2c(-n3cccc3)sc3c2CCN(S(C)(=O)=O)C3)sc2c1CCCC2 [No. 21]
[1]
  EC50: < 0.1 µM
[2]
  EC50: < 0.1 µM
[4]
  EC50: > 10 µM
[5]
  EC50: < 0.1 µM
[6]
  EC50: < 0.1 µM
[7]
  EC50: 1 to 10 µM
[8]
  EC50: < 0.1 µM
[9]
  EC50: < 0.1 µM

## O=C(NCCCN1CCC(N2CCCCC2)CC1)c1c(F)cc(-c2ccc(C(F)(F)F)cc2)cc1F [Compound 1106]
[10]
  EC50: 0.1 to 1 µM

## CCOC(=O)c1c(NC(=O)NCc2c(-n3cccc3)sc3c2CCNC3)sc2c1CCCC2 [Compound 61]
[10]; Huh7.5, 72 h
  EC50: < 0.1 µM

## CCOC(=O)c1c(NC(=O)NCc2c(-n3cccc3)sc3c2CCN(C)C3)sc2c1CCC(C)C2 (stereo not drawn) [Compound 154]
[10]; Huh7.5, 72 h
  EC50: < 0.1 µM

## O=C(NCCCN1CCC(N2CCCCC2)CC1)c1ccc(-c2ccc(O)cc2)cc1 [Compound 1127]
[10]
  EC50: 1 to 10 µM

## CCOC(=O)c1c(NC(=O)NCc2c(Cl)sc3c2CCNC3)sc2c1CCCC2 [Compound 97]
[10]; Huh7.5, 72 h
  EC50: 0.1 to 1 µM

## O=C(NCCCN1CCC(N2CCCCC2)CC1)c1ccc(N2CCCCC2)cc1 [Compound 1030]
[10]
  EC50: 1 to 10 µM

## CCOC(=O)c1c(NC(=O)NCc2c(C(F)(F)F)sc3c2CCNC3)sc2c1CCCC2 [Compound 96]
[10]; Huh7.5, 72 h
  EC50: < 0.1 µM

## Cc1sc(NC(=O)NCc2c(-c3cccc(F)c3)sc3c2CCNC3)c(C(=O)OC(C)(C)C)c1C [Compound 364]
[10]; Huh7.5, 72 h
  EC50: < 0.1 µM

## O=C(NCCCN1CCC(N2CCCCC2)CC1)c1ccc(-c2ccc(F)cc2C(F)(F)F)cc1 [Compound 1133]
[10]
  EC50: 0.1 to 1 µM

## Cc1sc(NC(=O)NCc2c(-c3ccc(Cl)cc3)sc3c2CCNC3)c(C(=O)OC(C)(C)C)c1C [Compound 369]
[10]; Huh7.5, 72 h
  EC50: < 0.1 µM

## Cc1sc(NC(=O)NCc2c(-c3ccoc3)sc3c2CCNC3)c(C(=O)OC(C)(C)C)c1C [Compound 332]
[10]; Huh7.5, 72 h
  EC50: < 0.1 µM

## CN(C)c1ccc(-c2ccc(C(=O)NCCCN3CCC(N4CCCCC4)CC3)c(Cl)c2)cc1 [Compound 1154]
[10]
  EC50: 0.1 to 1 µM

## CCOC(=O)c1c(NC(=O)NCc2c(-n3c(C)ccc3C)sc3c2CCN(CC)C3)sc2c1CCCC2 [Compound 51]
[10]; Huh7.5, 72 h
  EC50: < 0.1 µM

## CCN1CCc2c(sc(-n3cccc3)c2CNC(=O)Nc2sc3c(c2C(=O)OC(C)(C)C)C(C)CCC3)C1 (stereo not drawn) [Compound 292]
[10]; Huh7.5, 72 h
  EC50: < 0.1 µM

## CC1CCc2sc(NC(=O)NCc3c(-n4cccc4)sc4c3CCN(C)C4)c(C(=O)OC(C)(C)C)c2C1 (stereo not drawn) [Compound 231]
[10]; Huh7.5, 72 h
  EC50: < 0.1 µM

## CCOC(=O)c1c(NC(=O)NCc2c(-n3cccc3)sc3c2CCN(Cc2ccccc2)C3)sc(C)c1C [Compound 28]
[10]; Huh7.5, 72 h
  EC50: < 0.1 µM

## CCc1sc2c(c1CNC(=O)Nc1sc3c(c1C(=O)OC1CCCC1)CCCC3)CCNC2 [Compound 313]
[10]; Huh7.5, 72 h
  EC50: < 0.1 µM

## CCN1CCc2c(sc(Br)c2CNC(=O)Nc2sc(C)c(C)c2C(=O)OC(C)C)C1 [Compound 264]
[10]; Huh7.5, 72 h
  EC50: < 0.1 µM

## CCN1CCc2c(sc(-n3cccc3)c2CNC(=O)Nc2sc3c(c2C(=O)O)CCCC3)C1 [Compound 16]
[10]; Huh7.5, 72 h
  EC50: > 10 µM

## CN1CCc2c(sc(C(F)(F)F)c2CNC(=O)Nc2sc3c(c2C(=O)OC(C)(C)C)CCC3)C1 [Compound 278]
[10]; Huh7.5, 72 h
  EC50: < 0.1 µM

## O=S(=O)(NCCCN1CCC(N2CCCCC2)CC1)c1ccc(-c2ccc(Cl)cc2)cc1 [Compound 1099]
[10]
  EC50: 0.1 to 1 µM

## CC(C)(C)OC(=O)c1c(NC(=O)NCc2c(-c3ccc(O)cc3)sc3c2CCNC3)sc2c1CCCC2 [Compound 256]
[10]; Huh7.5, 72 h
  EC50: 0.1 to 1 µM

## CC(C)(C)OC(=O)c1c(NC(=O)NCc2c(-c3cncc(F)c3)sc3c2CCNC3)sc2c1CCCC2 [Compound 248]
[10]; Huh7.5, 72 h
  EC50: < 0.1 µM

## CCOC(=O)c1c(NC(=O)NCc2c(-c3ccco3)sc3c2CCNC3)sc2c1CCCC2 [Compound 338]
[10]; Huh7.5, 72 h
  EC50: < 0.1 µM
